Results reported in patent US9889093B2, “Application of andrographolide in the preparation of a pharmaceutical for treatment of inflammatory bowel disease, andrographolide enteric targeting micropellet, and method for preparation thereof” (TASLY PHARMACEUTICAL GROUP CO., LTD., priority 2013, dated 2018).

Legend:
Type in all cases: in vivo
[1] = system: DSS-induced UC mice; experiment: DSS-induced UC mouse model, disease active index
From the text: 4 Dose Designing and Grouping • 4.1 Grouping: quarantine-qualified 84 mice were randomly divided into 6 groups: the model control group, the positive control group, the tested drug low-dose intragastric group, the tested drug high-dose intragastric group, the tested drug low-dose intracolonical group and the tested drug high-dose intracolonical group, 14 mice per group. All animals drank 5% DSS solution daily for consecutive 14 days to establish UC model. Animals were administrated with the drug for treatment on the 2nd day after being given 5% DSS drinking water. • 4.2 Dose: in this study, dose of administration of the mice in all groups was designed on the basis of client's requirements, and the same doses were adopted in both intragastric and intracolonical groups. Animals were not treated in the model control group, the positive control group (mesalazine enteric tablet, 227.5 mg·kg^−1·d^−1), the andrographolide low-dose intragastric group (60 mg·kg^1·d^−1), the andrographolide high-dose intragastric group (180 mg·kg^−1·d^−1), the andrographolide low-dose intracolonical group (60 mg·kg^−1·d^−1) and the andrographolide high-dose intracolonical group (180 mg·kg^−1·d^−1).
5 Method • 5.1 Method of making UC model: all animals drank 5% DSS solution daily for consecutive 14 days. • 5.2 Method of administration: on the 2nd day after modeling, the mice were treated intragastrically or intracolonically with the drug at 1 mL/100 g once a day for consecutive 14 days. • 5.3 Method for sampling in experiment: 2 hours after the last administration, the mice were killed by cervical vertebra dislocation and abdomen was opened to separate the colon. Along mesenteric side, the intestinal lumen was cut and rinsed with 4° C. normal saline and spread on a plastic plate. • 5.4 Method for evaluating disease active index (DAI): the disease active index was assessed at the 7th and 14th day after administration. The method was presented together with the following three parameters: the body weight loss percentages (unchanged BW: 0 score, 1˜5: 1 score, 5˜10: 2 score, 10˜15: 3 score, more than 15: 4 score), stool viscosity (normal stool: 0 score, loosen stool: 2 score, diarrhea: 4 score) and blood stool (normal stool: 0 score, occult blood stool: 2 score and positive blood stool: 4 score). Total score of three parameters was divided by 3 to give the DAI, namely DAI=(BW index score+stool character score+stool blood score)/3.
6 Observation Indices • 6.1 Observation: the general clinical symptoms in the mice were observed daily from the beginning to the end of the experiment, and the stool, mental status and death status were recorded. • 6.2 Body weight: BW was recorded weekly from the beginning to the end of the experiment. • 6.3 Calculation of DAI: DAI was calculated on the 7th and 14th day after administration so as to assess disease activity. • 6.4 The colon mucosal tissue 8˜10 cm away from the anus was sampled, embedded with paraffin and stained with routine HE. Colon mucosal injury was observed by a microscope and histological injury was scored based on the following indices: ulcer inflammatory granuloma, fibrosis and pathological degree.
Data were expressed as mean+standard deviation (x±S). All numerical variables were analyzed with SPSS13.0 software by one-way ANOVA. T-test analysis was used for inter-group comparison.

[2] = system: zebra fish Crohn's disease model; experiment: Zebra fish Crohn's disease model (TNBS), efficacy; conditions: for Inflammation regression ratio: based on neutrophil infiltration; for Number of Neutrophil: intestinal tissue, x ± SE, n = 10; for Ratio with the blank control group: neutrophil number
[3] = system: zebra fish; experiment: Exploration of concentration in zebra fish (toxicity and death); conditions: 0.1 to 500 μg/mL in fish farm water, 30 zebra fishes per concentration
Protocol: Fish farm water of wild-type AB strain zebra fish Crohn's disease model (1 L reverse osmosis water was added with 200 mg instant sea salt with a conductivity of […], pH value of 6.9˜7.2 and hardness of 53.7˜71.6 mg/L CaCO3) was added with the andrographolide in the concentrations of 0 μg/mL, 0.1 μg/mL, 1 μg/mL, 10 μg/mL, 100 μg/mL and 500 μg/mL. At each concentration, 30 zebra fishes were treated, during which death number of the zebra fishes was counted daily and the dead fishes were removed in time. After treatment, the death number of the zebra fishes in each group was analyzed statistically to draw the optimum concentration-effect curve by using JMP software and calculate MNLC. […] As a result, the following four concentrations were selected for efficacy evaluation in Crohn's disease in this study: 50 μg/mL, 100 μg/mL, 250 μg/mL and 500 μg/mL.

[4] = andrographolide high-dose 180 mg/kg, intracolonical
[5] = andrographolide high-dose 180 mg/kg, intragastric
[6] = andrographolide low-dose 60 mg/kg, intracolonical
[7] = andrographolide low-dose 60 mg/kg, intragastric

## C=C1CC[C@@H]2[C@](C)(CO)[C@H](O)CC[C@@]2(C)[C@@H]1C/C=C1/C(=O)OC[C@H]1O [Andrographolide]
[1]; [4]
  DAI on the 7th day: 1.36 ± 0.64
  DAI on the 14th day: 1.35 ± 0.18
[1]; [5]
  DAI on the 7th day: 1.43 ± 0.38
  DAI on the 14th day: 1.64 ± 0.83
[1]; [6]
  DAI on the 7th day: 1.67 ± 0.65
  DAI on the 14th day: 1.77 ± 0.95
[1]; [7]
  DAI on the 7th day: 1.63 ± 0.99
  DAI on the 14th day: 2.01 ± 0.80
[2]; andrographolide 500 μg/ml, 48 hours
  Intestinal lumen area reduced by (therapeutical efficacy): 65±10.1%
[2]; andrographolide 50 μg/ml
  Inflammation regression ratio: 45 ± 3.7 %
  Number of Neutrophil: 18 ± 0.54
  Ratio with the blank control group: 1.97 ± 0.06
[2]; andrographolide 50 μg/ml, listed as andrographolide
  Inflammation regression ratio: 45±3.74%
[2]; andrographolide 100 μg/ml
  Inflammation regression ratio: 46 ± 3.7 %
  Number of Neutrophil: 17 ± 0.54
  Ratio with the blank control group: 1.96 ± 0.06
[2]; andrographolide 100 μg/ml, listed as andrographolide
  Inflammation regression ratio: 46±3.74%
[2]; andrographolide 250 μg/ml
  Inflammation regression ratio: 63 ± 4.4 %
  Number of Neutrophil: 15 ± 0.64
  Ratio with the blank control group: 1.67 ± 0.07
[2]; andrographolide 250 μg/ml, listed as andrographolide
  Inflammation regression ratio: 63±4.42%
[2]; andrographolide 500 μg/ml
  Inflammation regression ratio: 79 ± 9.0 %
  Number of Neutrophil: 13 ± 1.30
  Ratio with the blank control group: 1.40 ± 0.15
[2]; andrographolide 500 μg/ml, listed as andrographolide
  Inflammation regression ratio: 79±8.98%
[3]
  Toxicity and death in zebra fish: no toxicity and death were found
